Data published in patent US5968948A, “Annelated dihydropyridines and the use thereof for preparing pharmaceutical preparations” (Boerhinger Ingelheim GmbH, priority 1993, dated 1999).

System: RBL-2H3-cells
Experiment: Antigen-induced (DNP-BSA) activation of sensitised RBL-2H3 cells, fluorometric calcium measurement
Type: cell-based
Settings: Rattus norvegicus, read-out: inhibition of the antigen-induced cell activation
Procedure: Individual RBL-2H3-cells (a tumour cell line related to the mast cells) adhering to glass slides are used.
The cultivation and attachment of the RBL-2H3-cells are carried out by the method described by HIDE and BEAVEN (1991). In order to sensitise the adhesive RBL-2H3-cells the cells are incubated for 2 hours at ambient temperature with a 1:2000 diluted commercial gammaglobulin E-solution against a dinitrophenol-bovine serum albumin complex (DNP-BSA-antigen). The cells are then washed. By the addition of 0.1 ml of DNP-BSA-solution (10 μg/ml) there is a massive immunological cell activation which is mediated by a cytoplasmic Ca^2+ -overload. The fluorometric calcium measurement in the cytoplasm of individual adhering RBL-2H3-cells is carried out analogously to the method described by KUDO and OGURA (1986) for neuronal cells, which is also explained hereinbefore in this specification.
The comparison used in these investigations is (10 μM) chromoglycate which brings about an approximately 50% inhibition of the antigen-induced cell activation.

## O=C(O)c1cc(=O)c2c(OCC(O)COc3cccc4oc(C(=O)O)cc(=O)c34)cccc2o1 [chromoglycate]
  inhibition at 10 µM: ~50%
